Measurements as given in patent US10219513B2, “Safening 4-amino-3-chloro-6-(4-chloro-2-fluoro-3-methoxyphenyl)-5-fluoropyridine-2-carboxylic acid compositions in Brassica species and methods of use thereof” (Dow AgroSciences LLC, priority 2016, dated 2019).

What was measured:
[1] = system: Brassica juncea (Juncea canola or brown mustard, BRSJU); test: Greenhouse postemergence application, visual injury after 20-22 d, BRSJU
Procedure: (§1) Seeds of the desired test plant species were planted in Sun Gro MetroMix® 306 planting mixture, which typically has a pH of 6.0 to 6.8 and an organic matter content of about 30 percent, in plastic pots with a surface area of 103.2 square centimeters (cm^2). […] The plants were grown for 7-36 days (d) in a greenhouse with an approximate 14-hour (h) photoperiod which was maintained at about 23° C. during the day and 22° C. during the night. Nutrients and water were added on a regular basis and supplemental lighting was provided with overhead metal halide 1000-Watt lamps as necessary. The plants were employed for testing when they reached the second or third true leaf stage.
(§2) An aliquot of formulated benzyl 4-amino-3-chloro-6-(4-chloro-2-fluoro-3-methoxyphenyl)-5-fluoropyridine-2-carboxylate (florpyrauxifen-benzyl; 300 grams active ingredient per liter (g ai/L) suspension concentrate (SC)) was placed in a 25 mL glass vial and diluted in a volume of 1.25% (v/v) aqueous Agri-dex crop oil concentrated to obtain a stock solution. […] The concentrated stock solutions were diluted with an aqueous mixture of 1.25% v/v of aqueous Agri-dex crop oil concentrate to provide the appropriate application rates. Compound requirements are based upon a 12 milliliter (mL) application volume at a rate of 187 liters per hectare (L/ha). Stock solutions of the formulated materials were prepared following the same procedure. Spray solutions of the compound mixtures were prepared by adding the stock solutions to the appropriate amount of dilution solution to form a 12 mL spray solution. Formulated compounds were applied to the plant material with an overhead Mandel track sprayer equipped with 8002E nozzles calibrated to deliver 187 L/ha over an application area of 0.503 square meters (m^2) at a spray height of 18 inches (43 centimeters (cm)) above average plant canopy. Control plants were sprayed in the same manner with the solvent blank.
(§3) The treated plants and control plants were placed in a greenhouse as described above and watered by sub-irrigation to prevent wash-off of the test compounds. After 20-22 d, the condition of the test plants as compared with that of the control plants was determined visually and scored on a scale of 0 to 100 percent where 0 corresponds to no injury and 100 corresponds to complete kill. Colby's equation was used to determine the herbicidal effects expected from the mixtures.
(§4) Benzyl 4-amino-3-chloro-6-(4-chloro-2-fluoro-3-methoxyphenyl)-5-fluoropyridine-2-carboxylate (florpyrauxifen-benzyl, 300 g ai/L SC) was combined in two-, three-, and four-way mixtures with one or more of the following: clopyralid-olamine (as Lontrel™ 35A Herbicidal Concentrate), quinclorac (as Facet 75DF), isoxadifen-ethyl (100 g/L SC), cloquintocet-mexyl (120 g/L EC) or mefenpyr-diethyl (as mefenpyr-diethyl 15WP). The mixtures were applied to kale/Chinese kale (Brassica alboglabra, BRSAG), Juncea canola or brown mustard (Brassica juncea, BRSJU), rutabaga (Brassica napus var. napobrassica, BRSNA), all varieties of canola and oilseed rape (Brassica napus, BRSNN), Nexera™ canola (Brassica napus, BRSNN-NEX), winter oilseed rape (Brassica napus, BRSNW), Roundup Ready® canola (Brassica napus, RR-BRSNN), and turnip or Polish canola (Brassica rapa, BRSRR), and the phytotoxicity of the compositions was measured.
(§5) Colby's equation was used to determine the herbicidal effects expected from the mixtures evaluated in the described trials (Colby, S. R. Calculation of the synergistic and antagonistic response of herbicide combinations. Weeds 1967, 15, 20-22.).
(§6) The following equation was used to calculate the expected activity of mixtures containing two active ingredients, A and B: Expected=A+B−(A×B/100) • A=observed efficacy of active ingredient A at the same concentration as used in the mixture; • B=observed efficacy of active ingredient B at the same concentration as used in the mixture.

[2] = system: Brassica napus (Nexera canola, BRSNN-NEX); test: Greenhouse postemergence application, visual injury after 20-22 d, BRSNN-NEX
Procedure: as §1, §2, §3, §4, §5, §6

[3] = system: Brassica rapa (turnip or Polish canola, BRSRR); test: Greenhouse postemergence application, visual injury after 20-22 d, BRSRR
Procedure: as §1, §2, §3, §4, §5, §6

[4] = system: Brassica alboglabra (kale/Chinese kale, BRSAG); test: Greenhouse postemergence application, visual injury after 20-22 d, BRSAG
Procedure: as §1, §2, §3, §4, §5, §6

[5] = system: Brassica napus (all varieties of canola and oilseed rape, BRSNN); test: Greenhouse postemergence application, visual injury after 20-22 d, BRSNN
Procedure: as §1, §2, §3, §4, §5, §6

[6] = isoxadifen-ethyl 5 g ai/ha alone
[7] = isoxadifen-ethyl 10 g ai/ha alone
[8] = isoxadifen-ethyl 20 g ai/ha alone
[9] = isoxadifen-ethyl 40 g ai/ha alone
[10] = postemergence application, greenhouse, application rate (g ai/ha) varies

CCOC(=O)C1=NOC(c2ccccc2)(c2ccccc2)C1 [Isoxadifen-ethyl, ethyl 4,5-dihydro-5,5-diphenyl-1,2-oxazole-3-carboxyalte]
0%: % Visual Injury Obs ([1]; BRSJU, 5 g ai/ha) | % Visual Injury Obs ([1]; BRSJU, 10 g ai/ha) | % Visual Injury Obs ([1]; BRSJU, 20 g ai/ha) | % Visual Injury Obs ([1]; BRSJU, 40 g ai/ha) | Obs % visual injury ([1]; BRSJU, partner alone 5 g ai/ha) | Obs % visual injury ([1]; BRSJU, partner alone 10 g ai/ha) | Obs % visual injury ([1]; BRSJU, partner alone 20 g ai/ha) | Obs % visual injury ([1]; BRSJU, partner alone 40 g ai/ha) | % Visual Injury Obs [1, 6] | % Visual Injury Obs [1, 7] | % Visual Injury Obs [1, 8] | % Visual Injury Obs [1, 9] | % Visual Injury BRSJU Obs [1, 10] | % Visual Injury Obs ([2]; BRSNN-NEX, 5 g ai/ha) | % Visual Injury Obs ([2]; BRSNN-NEX, 10 g ai/ha) | % Visual Injury Obs ([2]; BRSNN-NEX, 20 g ai/ha) | % Visual Injury Obs ([2]; BRSNN-NEX, 40 g ai/ha) | Obs % visual injury ([2]; BRSNN-NEX, partner alone 5 g ai/ha) | Obs % visual injury ([2]; BRSNN-NEX, partner alone 10 g ai/ha) | Obs % visual injury ([2]; BRSNN-NEX, partner alone 20 g ai/ha) | Obs % visual injury ([2]; BRSNN-NEX, partner alone 40 g ai/ha) | % Visual Injury Obs [2, 6] | % Visual Injury Obs [2, 7] | % Visual Injury Obs [2, 8] | % Visual Injury Obs [2, 9] | % Visual Injury BRSNN-NEX Obs [2, 10] | % Visual Injury Obs ([3]; BRSRR, 5 g ai/ha) | % Visual Injury Obs ([3]; BRSRR, 10 g ai/ha) | % Visual Injury Obs ([3]; BRSRR, 20 g ai/ha) | % Visual Injury Obs ([3]; BRSRR, 40 g ai/ha) | Obs % visual injury ([3]; BRSRR, partner alone 5 g ai/ha) | Obs % visual injury ([3]; BRSRR, partner alone 10 g ai/ha) | Obs % visual injury ([3]; BRSRR, partner alone 20 g ai/ha) | Obs % visual injury ([3]; BRSRR, partner alone 40 g ai/ha) | % Visual Injury Obs [3, 6] | % Visual Injury Obs [3, 7] | % Visual Injury Obs [3, 8] | % Visual Injury Obs [3, 9] | % Visual Injury BRSRR Obs [3, 10] | % Visual Injury Obs ([4]; BRSAG, 5 g ai/ha) | % Visual Injury Obs ([4]; BRSAG, 10 g ai/ha) | % Visual Injury Obs ([4]; BRSAG, 20 g ai/ha) | % Visual Injury Obs ([4]; BRSAG, 40 g ai/ha) | Obs % visual injury ([4]; BRSAG, partner alone 5 g ai/ha) | Obs % visual injury ([4]; BRSAG, partner alone 10 g ai/ha) | Obs % visual injury ([4]; BRSAG, partner alone 20 g ai/ha) | Obs % visual injury ([4]; BRSAG, partner alone 40 g ai/ha) | % Visual Injury Obs [4, 6] | % Visual Injury Obs [4, 7] | % Visual Injury Obs [4, 8] | % Visual Injury Obs [4, 9] | % Visual Injury BRSAG Obs [4, 10] | % Visual Injury Obs ([5]; BRSNN, 5 g ai/ha) | % Visual Injury Obs ([5]; BRSNN, 10 g ai/ha) | % Visual Injury Obs ([5]; BRSNN, 20 g ai/ha) | % Visual Injury Obs ([5]; BRSNN, 40 g ai/ha) | Obs % visual injury ([5]; BRSNN, partner alone 5 g ai/ha) | Obs % visual injury ([5]; BRSNN, partner alone 10 g ai/ha) | Obs % visual injury ([5]; BRSNN, partner alone 20 g ai/ha) | Obs % visual injury ([5]; BRSNN, partner alone 40 g ai/ha) | % Visual Injury Obs [5, 6] | % Visual Injury Obs [5, 7] | % Visual Injury Obs [5, 8] | % Visual Injury Obs [5, 9] | % Visual Injury BRSNN Obs [5, 10]
